The source of these data is patent US11643782B2, “Method for controlling growth of microorganisms and/or biofilms in an industrial process” (Kemira Oyj, priority 2017, dated 2023).

Common to all, as to format: cell-based
The subject of assay [1] is Pseudoxanthomonas taiwanensis biofilms. The experiment in a line: Removal of existing (preformed) biofilm (96-microwell peg-lid plates, Crystal Violet staining). The conditions noted are these: for Biofilm quantity, Abs. at 595 nm / Biofilm reduction: SPW, 45° C., 150 rpm, 24 h pre-growth and 24 h contact time; for Removal of already formed biofilms (in words): synthetic paper machine water, high temperature, fibres present, high flow. From the text:
(§1) Pure cultures of Meiothermus silvanus, a microbe species commonly found in paper machine biofilms (Ekman J, Journal of Industrial Microbiology & Biotechnology 34:203-211) and Pseudoxanthomonas taiwanensis, another species commonly found in paper machine environments (Desjardins, E & Beaulieu, C, Journal of Industrial Microbiology & Biotechnology 30:141-145) were used to study the efficacy of various chemicals to prevent biofilm formation.
(§2) Biofilm tests were done in either synthetic commercial R2-broth (Lab M Ltd, UK) or fibre-containing synthetic paper machine water, SPW (prepared according to Peltola, et al., J. Ind. Microbiol. Biotechnol. 2011, 38: 1719-1727) using 96-microwell plate wells with peg lids (Thermo Fischer Scientific Inc., USA). Plates were incubated at 45° C. with a rotary shaking (150 rpm) providing high flow in each well.
(§3) For experiments of removing already existing (preformed) biofilm wells of 96-microwell plates with peg-lids were filled with SPW, inoculated with the pure bacterial cultures. Biofilm was grown for 24 hours without addition of any chemical compound to be tested. In some experiments after 24 hours the procedure was repeated by emptying the wells and by addition of a fresh solution of SPW inoculated with pure bacterial culture, again without any test chemical compound. The original peg-lid was put back in place and biofilm was allowed to grow for additional 24 h, i.e. in total 48 h.
(§4) After 24 or 48 hours after starting the test, the wells were emptied and a fresh solution of SPW, inoculated with the pure bacterial cultures and with different amounts of chemical compounds to be tested were added and the original peg-lid was placed back in place. After an additional 2 or 24 hours the wells were emptied, rinsed and the peg lid and wells were left to dry.
(§5) The amount of biofilm formed on the microwells and peg surfaces was quantified with a staining solution by adding 200 μl of 1% Crystal Violet (Merck Millipore KGaA, Germany) in methanol to each well and placing the peg-lid back on. After 3 minutes the wells were emptied and the wells and pegs were rinsed 3 times with tap water. The attached Crystal Violet was dissolved into ethanol and the absorbance at 595 nm was measured. The values shown in the following tables are average absorbance from 8 replicate wells and pegs.
(§6) All absorbance values in Examples 1-8 are given actual measured values. In calculation for biofilm reduction percentages it was taken in account that the SPW alone for 2 days without any bacterial inoculum gave a background value of 0.14.

Assay [2] relates to Meiothermus silvanus biofilms. The experiment in a line: Prevention of biofilm formation (96-microwell peg-lid plates, Crystal Violet staining). The conditions noted are these: for Biofilm quantity, Abs. at 595 nm / Biofilm reduction: 48 h contact time.
Source text: as §1, §2
(§7) For experiments of preventing biofilm formation wells of 96-microwell plates with peg-lids were filled with R2-broth or SPW, inoculated with the pure bacterial cultures and treated with different amounts of chemical compounds to be tested. Peg-lid was put on. After 24 hours the wells were emptied and a fresh solution of pure culture containing SPW or R2 broth with different amounts of test chemicals were added to the wells and the original peg-lid was put back in place. After an additional 24 hours, i.e. 48 hours after starting the test, the wells were emptied, rinsed and the peg lid and wells were left to dry.
as §5, §6

Assay [3] concerns Meiothermus silvanus biofilms. The experiment in a line: Removal of existing (preformed) biofilm (96-microwell peg-lid plates, Crystal Violet staining). To be noted: for Biofilm quantity, Abs. at 595 nm / Biofilm reduction: SPW, 45° C., 150 rpm, 24 h pre-growth and 24 h contact time.
Source text: as §1, §2, §3, §4, §5, §6

Assay [4] deals with Pseudoxanthomonas taiwanensis biofilms. The experiment in a line: Prevention of biofilm formation (96-microwell peg-lid plates, Crystal Violet staining). To be noted: for Biofilm quantity, Abs. at 595 nm / Biofilm reduction / Biofilm quantity, Abs at 595 nm: 48 h contact time.
Source text: as §1, §2, §7, §5, §6

The mark [5] stands for this setting: Table 9, dosage 0.2 mg/l active compound.
[6] abbreviates: Table 9, dosage 0.4 mg/l active compound.
Setting [7] is: Table 5, dosage 0.06 mg/l active compound, SPW, 45° C., 150 rpm.
Where [8] appears, read: Table 5, dosage 0.2 mg/l active compound, SPW, 45° C., 150 rpm.
Setting [9] is: Table 7, dosage 0.2 mg/l active compound.
Where [10] appears, read: Table 7, dosage 0.6 mg/l active compound.
The mark [11] stands for this setting: Table 6, dosage 0.06 mg/l active compound, SPW, 45° C., 150 rpm.
[12] abbreviates: Table 6, dosage 0.2 mg/l active compound, SPW, 45° C., 150 rpm.
[13] abbreviates: dosage 0.2 mg/l active compound.
[14] abbreviates: dosage 0.6 mg/l active compound.
[15] abbreviates: active compound, synthetic paper machine water, high temperature, fibres present, high flow.
Setting [16] is: dosage 0.2 mg/l active ingredient, SPW, 45° C., 150 rpm.
The mark [17] stands for this setting: dosage 0.6 mg/l active ingredient, SPW, 45° C., 150 rpm.
The mark [18] stands for this setting: dosage 1 mg/l active ingredient, SPW, 45° C., 150 rpm.

As for `N#C/C=C/S(=O)(=O)c1ccccc1` [Compound C, (2E)-3-phenylsulphonyl-2-propenenitrile], the “Biofilm quantity, Abs. at 595 nm” value came to 0.15 in assay [1] (setting [5]), 0.15 in assay [1] (setting [6]), 0.64 in assay [2] (setting [7]) and 0.15 in assay [2] (setting [8]). In addition, the Biofilm reduction in assay [1] (setting [5]) stood at 98.5%; in assay [1] (setting [6]), 99.0%; in assay [2] (setting [7]), 29.7%; in assay [2] (setting [8]), 98.2%. Also, the “Removal of already formed biofilms (in words)” value (“Removal” for short) in assay [1] is on record as “remove already formed biofilms”.
Turning to `Cc1cc(C)c(S(=O)(=O)/C=C/C#N)c(C)c1` [Compound D, (2E)-3-[(2,4,6-trimethylphenyl)sulphonyl]-2-propenenitrile], in assay [1] (setting [9]), the “Biofilm quantity, Abs. at 595 nm” value is 2.07 and the Biofilm reduction amounted to 8.4%. Besides, in assay [1] (setting [10]), the “Biofilm quantity, Abs. at 595 nm” value is reported as 0.18 and the Biofilm reduction was found to be 97.9%. Besides, in assay [1], the “Removal” value was “remove already formed biofilms”.
On to `N#C/C=C/S(=O)(=O)c1ccc(C(F)(F)F)cc1` [Compound E, (2E)-3-[(4-trifluormethylphenyl)sulphonyl]-2-propenenitrile], for which, in assay [2] (setting [11]), the “Biofilm quantity, Abs. at 595 nm” value is recorded as 1.43 and the Biofilm reduction was 38.8%. Moreover, in assay [2] (setting [12]), the “Biofilm quantity, Abs. at 595 nm” value turned out to be 0.14 and the Biofilm reduction stood at 99.6%.
For the molecule `COc1ccc(S(=O)(=O)/C=C/C#N)cc1` [Compound F, (2E)-3-[(4-methoxyphenyl)sulphonyl]-2-propenenitrile], the “Biofilm quantity, Abs. at 595 nm” value is on record as 1.21 in assay [3] (setting [13]) and 0.86 in assay [3] (setting [14]). The Biofilm reduction in assay [3] (setting [13]) is on record as 6.4%; in assay [3] (setting [14]), 37.3%. In addition, the “Removal” value in assay [3] (synthetic paper machine water, high temperature, fibres present, high flow) was “remove already formed biofilms”.
Take `N#CC(Br)(Br)C(N)=O` [DBNPA, 2,2-dibromo-3-nitrilopropionamide]: the “Dosage required to reach acceptable or noticable biofilm reduction efficacy” value in assay [4] (setting [15]) and in assay [2] (setting [15]) was 1 mg/I throughout. Further, the “Biofilm quantity, Abs. at 595 nm” value in assay [4] (setting [16]) is listed as 1.46; in assay [4] (setting [17]) it was 1.23; in assay [4] (setting [18]), 0.14; in assay [2] (setting [16]), 0.57; in assay [2] (setting [17]), 0.35; in assay [2] (setting [18]) it was 0.15. The Biofilm reduction was determined as 12.6% in assay [4] (setting [16]); 27.8% in assay [4] (setting [17]); 99.9% in assay [4] (setting [18]); 16.9% in assay [2] (setting [16]); 60.7% in assay [2] (setting [17]); 98.8% in assay [2] (setting [18]).
For the molecule Gramicidin, the “Biofilm quantity, Abs. at 595 nm” value came out at 2.80 in assay [4] (dosage 3 mg/l, R2-broth); 2.55 in assay [4] (dosage 10 mg/l, R2-broth); 0.19 in assay [4] (dosage 25 mg/l, R2-broth); 1.40 in assay [2] (dosage 0.2 mg/l, R2-broth); 1.33 in assay [2] (dosage 0.2 mg/l, SPW); 0.66 in assay [2] (dosage 1 mg/l, R2-broth). Moreover, the “Biofilm quantity, Abs. at 595 nm” value is 1.41 in assay [2] (dosage 1 mg/l, SPW); 0.17 in assay [2] (dosage 3 mg/l, R2-broth); 0.45 in assay [2] (dosage 3 mg/l, SPW); 0.14 in assay [2] (dosage 10 mg/l, R2-broth); 0.19 in assay [2] (dosage 10 mg/l, SPW). Further, the Biofilm reduction in assay [4] (dosage 3 mg/l, R2-broth) is given as −0.8%; in assay [4] (dosage 3 mg/l, SPW), 5.4%; in assay [4] (dosage 10 mg/l, R2-broth), 8.7%; in assay [4] (dosage 10 mg/l, SPW), −1.8%; in assay [4] (dosage 25 mg/l, R2-broth) it was 98.1%; in assay [4] (dosage 25 mg/l, SPW), −2.2%. Besides, the Biofilm reduction is 13.7% in assay [2] (dosage 0.2 mg/l, R2-broth); 2.5% in assay [2] (dosage 0.2 mg/l, SPW); 64.4% in assay [2] (dosage 1 mg/l, R2-broth); −4.1% in assay [2] (dosage 1 mg/l, SPW); 97.9% in assay [2] (dosage 3 mg/l, R2-broth); 74.6% in assay [2] (dosage 3 mg/l, SPW). Besides, the Biofilm reduction in assay [2] (dosage 10 mg/l, R2-broth) was determined as 100.0%; in assay [2] (dosage 10 mg/l, SPW), 95.9%. For the same molecule, the “Biofilm quantity, Abs at 595 nm” value in assay [4] (dosage 3 mg/l, SPW) amounted to 2.25; in assay [4] (dosage 10 mg/l, SPW) it was 2.41; in assay [4] (dosage 25 mg/l, SPW) it was 2.42.
